Results on 7 compounds are retold here after ChEMBL document CHEMBL1201862, “PubChem BioAssay data set” (2004).

Some test systems named below: A549; SR; SF-268; HCT-116; CAKI-1; T47D; MOLT-4; SW-620; OVCAR-4; DU-145; MCF7; HCT-15; K562; UACC-257; NCI-H226; IGROV-1; KM12; MDA-MB-231; HT-29; COLO 205.
Assay in all cases: NCI-60 cell line screen, 48 h

Each structure is given as a SMILES string.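 Compound exposure: 48 hours, 5 concentrations, 96-well plates. Abbreviation: GI50, concentration required for 50% inhibition of growth.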 Activity calls are given as the source filed them. Rule as the data show it: active = GI50 up to about 1.1 µM and inactive = higher. Where only a bound is given, the exact number is not on record here.

In the case of `O=c1c2ccccc2n2c(-c3ccccc3O)nnc2n1-c1ccccc1`, the GI50 with A549, in the assay with SR, in the assay on SF-268, in the assay on HCT-116, in the assay with CAKI-1 and with T47D was > 100 µM (inactive) each time. The GI50 was > 100 µM (inactive) in the assay on MOLT-4; > 100 µM (inactive) with SW-620; > 100 µM (inactive) in the assay on OVCAR-4; > 100 µM (inactive) in the assay on DU-145; > 100 µM (inactive) with MCF7; over 100 µM in the assay with HCT-15. Besides, the GI50 in the assay with K562, in the assay with UACC-257, in the assay on NCI-H226, in the assay on IGROV-1, in the assay with KM12 and with MDA-MB-231 was > 100 µM (inactive) each time. Further, the GI50 in the assay on HT-29 and in the assay on COLO 205 was > 100 µM (inactive) each time.

On to `Cn1c(=O)c2nc(CS(=O)(=O)Cc3nc4c(=O)n(C)c(=O)n(C)c4[nH]3)[nH]c2n(C)c1=O`, for which the GI50 with A549, in the assay with SR, with SF-268, with HCT-116, with CAKI-1 and with T47D was > 100 µM (inactive) in each case. In addition, the GI50 in the assay with MOLT-4 is > 100 µM (inactive); in the assay on SW-620, > 100 µM (inactive); in the assay on OVCAR-4 it was 43.1 µM (inactive); with DU-145, > 100 µM (inactive); with MCF7, 28.1 µM (inactive); in the assay with HCT-15 it was over 100 µM. For the same compound, the GI50 in the assay on K562 is > 100 µM (inactive); in the assay on UACC-257, > 100 µM (inactive); with NCI-H226, > 100 µM (inactive); with IGROV-1 it was > 100 µM (inactive); in the assay on KM12 it was > 100 µM (inactive); with MDA-MB-231, 40.6 µM (inactive). In addition, the GI50 with HT-29 and in the assay on COLO 205 was > 100 µM (inactive) each time.

Consider `O=C(ON=C1c2ccccc2C(Br)C(Br)c2ccccc21)c1cc([N+](=O)[O-])cc([N+](=O)[O-])c1` (stereo not given), for which the GI50 is 30.4 µM (inactive) in the assay on A549; 0.245 µM (active) in the assay with SR; 17.8 µM (inactive) in the assay with SF-268; 18.5 µM (inactive) in the assay with HCT-116; 20.5 µM (inactive) in the assay with CAKI-1; 35.2 µM (inactive) in the assay with T47D. Also, the GI50 is 7.45 µM (inactive) in the assay with MOLT-4; 18.7 µM (inactive) in the assay with SW-620; 22.2 µM (inactive) with OVCAR-4; 25.9 µM (inactive) with DU-145; 24.7 µM (inactive) with MCF7; 20.5 µM with HCT-15. Further, the GI50 is 16.9 µM (inactive) with K562; 18 µM (inactive) in the assay on UACC-257; 24.9 µM (inactive) in the assay with NCI-H226; 2.8 µM (inactive) with IGROV-1; 19.4 µM (inactive) with KM12; 19.2 µM (inactive) with MDA-MB-231. Also, the GI50 in the assay on HT-29 is 16.3 µM (inactive); in the assay with COLO 205, 20.3 µM (inactive).

For the compound `CNC(=O)c1cc2nc3ccccc3c(=O)n2c2ccccc12`, the GI50 with A549, in the assay with SR, with SF-268, in the assay on HCT-116, in the assay on CAKI-1 and in the assay on T47D was > 10 µM (inactive) throughout. The GI50 was > 10 µM (inactive) in the assay with MOLT-4; > 10 µM (inactive) in the assay on SW-620; > 10 µM (inactive) with OVCAR-4; > 10 µM (inactive) in the assay with DU-145; > 10 µM (inactive) in the assay with MCF7; over 10 µM in the assay on HCT-15. Moreover, the GI50 with K562, with UACC-257, with NCI-H226, in the assay with IGROV-1, in the assay on KM12 and in the assay on MDA-MB-231 was > 10 µM (inactive) throughout. The GI50 in the assay with HT-29 and in the assay on COLO 205 was > 10 µM (inactive) in each case.

Regarding `Cc1cc(C)c(NC(=S)NC(=O)c2ccccc2)cc1C`, the GI50 was > 100 µM (inactive) in the assay on A549; 37.7 µM (inactive) in the assay with SR; > 100 µM (inactive) with SF-268; > 100 µM (inactive) with HCT-116; > 100 µM (inactive) with CAKI-1; 55.7 µM (inactive) in the assay with T47D. In addition, the GI50 is 93.5 µM (inactive) with MOLT-4; > 100 µM (inactive) in the assay on SW-620; 61.2 µM (inactive) with OVCAR-4; > 100 µM (inactive) with DU-145; 38.2 µM (inactive) in the assay with MCF7; 93.1 µM in the assay on HCT-15. Further, the GI50 is 74 µM (inactive) in the assay on K562; 84.7 µM (inactive) in the assay with UACC-257; > 100 µM (inactive) in the assay on NCI-H226; > 100 µM (inactive) in the assay with IGROV-1; > 100 µM (inactive) in the assay with KM12; > 100 µM (inactive) in the assay with MDA-MB-231. Also, the GI50 in the assay on HT-29 and in the assay on COLO 205 was > 100 µM (inactive) throughout.

Take `NC(=O)C1CCCN1Cc1ccc2c(c1)OCO2` (stereo not given): the GI50 in the assay with A549, in the assay on SR, with SF-268, with HCT-116, in the assay on CAKI-1 and in the assay on T47D was > 100 µM (inactive) throughout. The GI50 was > 100 µM (inactive) in the assay on MOLT-4; > 100 µM (inactive) with SW-620; > 100 µM (inactive) in the assay on OVCAR-4; > 100 µM (inactive) with DU-145; > 100 µM (inactive) in the assay with MCF7; over 100 µM in the assay with HCT-15. Besides, the GI50 in the assay on K562, with UACC-257, in the assay with NCI-H226, in the assay with IGROV-1, in the assay on KM12 and in the assay with MDA-MB-231 was > 100 µM (inactive) each time. The GI50 in the assay on HT-29 and with COLO 205 was > 100 µM (inactive) in each case.

Turning to `CCC(C)C1NC(=O)C(NC(=O)c2c3nc4c(C(=O)NC5C(=O)NC(C(C)CC)C(=O)N6CCCC6C(=O)N(C)CC(=O)N(C)C(C(C)C)C(=O)OC5C)ccc(C)c4oc-3c(C)c(=O)c2O)C(C)OC(=O)C(C(C)C)N(C)C(=O)CN(C)C(=O)C2CCCN2C1=O` (stereo not given), the GI50 with A549 was 2.47 µM (inactive); with SR, 0.119 µM (active); in the assay on SF-268, 3.77 µM (inactive); in the assay on HCT-116, 0.55 µM (active); in the assay with CAKI-1, 10.3 µM (inactive); with T47D, 2.84 µM (inactive). Further, the GI50 with MOLT-4 was 1.01 µM (active); in the assay with SW-620, 1.09 µM (active); in the assay with OVCAR-4 it was 14.3 µM (inactive); in the assay with DU-145 it was 5.78 µM (inactive); in the assay with MCF7 it was 1.11 µM (active); in the assay with HCT-15, 16.6 µM. Also, the GI50 in the assay with K562 was 0.74 µM (active); in the assay on UACC-257, 3.3 µM (inactive); in the assay with NCI-H226 it was 0.881 µM (active); with IGROV-1, 0.239 µM (active); in the assay with KM12 it was 1.63 µM (inactive); in the assay with MDA-MB-231, 1.25 µM (inactive). The GI50 with HT-29 is 1.06 µM (active); in the assay on COLO 205, 1.35 µM (inactive).
